Structures are written as SMILES.

As a reminder, the melting point is the temperature, or range, at which the solid turns liquid.

Molecule `Cn1c(COc2ccc(CC3SC(=O)N(C(c4ccccc4)(c4ccccc4)c4ccccc4)C3=O)cc2)cc2ccccc21` (stereo unspecified) yielded a melting point of 134 to 136 °C.
For the molecule `CCOC(=O)NOC(=O)c1ccc(C(=O)ONC(=O)OCC)cc1`, the melting point is 130 °C.
On to `CCNC(=O)c1c(Br)ccc(OC)c1Cl`, for which the melting point fell in the range of 181 to 182 °C.
The result for `CC(C(=O)O)c1ccc(I)cc1` (stereo unspecified) reads 101 to 102 °C; that for `Cc1ccc(Oc2ccc(-c3ccc(Cl)cc3)cc2)cc1`, 130 °C; that for `O=C1CCc2ccc(O)c(c2)Oc2ccc(cc2)C=CCO1`, 148 to 151 °C.
The result for `COc1cc(C(=O)N2CCC(CCN3CCC(O)(c4nc5ccccc5n4Cc4ccc(F)cc4)CC3)(c3ccc(Cl)c(Cl)c3)C2)cc(OC)c1OC` (stereo unspecified) reads 130 to 150 °C; that for `CCOC(=O)c1cccc(NC(=O)Oc2ccccc2)c1`, 138 °C; that for `Cn1cc(C2=C(c3c4n(c5ccccc35)CCC(C#N)C4)C(=O)OC2=O)c2ccccc21` (stereo unspecified), 309 to 311 °C.
In turn, `CC(C)(C)c1cc(CC(C)(C)[N+](=O)[O-])cc(C(C)(C)C)c1O` returned a melting point of 101 to 104 °C.
In the case of `CCn1c(COCc2ccccc2)nc(C(C)C)c1Sc1cccc([N+](=O)[O-])c1` it was 121 to 123 °C; in that of `COc1cc(C)c2c(c1)OC(C)(C)CC2=O`, 86 to 88 °C; in that of `COC(=O)C=C(C)c1ccc2c(ccn2S(=O)(=O)c2ccccc2)c1`, 80 to 85 °C.
In turn, `CONC(=O)c1ccccc1S(=O)(=O)NC(=O)Nc1nc(C)cc(C)n1` returned a melting point of 218 °C.
As for `CCOC(=O)C(=Cc1cccc([N+](=O)[O-])c1)C(=O)CCl`, the melting point was 108 to 111 °C.
The result for `CNC(=O)c1cccc(C)c1Nc1nc(Nc2ccc3c(c2)C(=O)NCCC3)ncc1Cl` reads 259 °C; that for `O=C(O)C1Cc2c(c(Cl)cc3c(-c4ccc(F)cc4)noc23)O1` (stereo unspecified), 215 to 218 °C; that for `O=C1CNc2cc(F)ccc2N1`, 176 to 178 °C.
In the case of `CN(C)C(=O)Nc1cccc(CCC#N)c1` it was 159 to 161 °C; in that of `CCOc1ccccc1C(=O)C=Cc1ccc2ccccc2c1`, 96 to 97 °C; in that of `O=C(O)CCC(=O)c1c(-c2ccccc2)cc2ccccn12`, 131 to 133 °C.
In the case of `Nc1ccccc1C(=O)CCCO` it was 58 to 61 °C; in that of `N#Cc1cc(-c2ccoc2)c2ccc(COc3cc(F)cc(-c4ccccc4)c3)cc2n1`, 150 to 152 °C; in that of `C[C@@H]1CN(CCCn2c3ccc(O)cc3c3c4c(c(-c5ccccc5Cl)cc32)C(=O)NC4=O)C[C@H](C)N1`, 165 to 172 °C.
In turn, `CC(C)(C)C(NC(=O)c1ccc(Cl)cc1)NC(=N[N+](=O)[O-])Nc1cccnc1` (stereo unspecified) returned a melting point of 203 to 204 °C.
The result for `CCc1cccc2c(C(=O)c3cccc(Cl)c3Cl)c(C)n(CCCS(=O)(=O)N(C)C)c12` reads 18 °C; that for `CCn1c(=O)c(C(=O)O)c(O)c2ccc(C)nc21`, 162 to 165 °C.
In the case of `C=CCOC(=O)N1CCC[C@@H](OC)[C@@H]1CC(=O)Cn1cnc2cc(Cl)c(Oc3ccc(Cl)cc3)cc2c1=O` (relative stereo) it was 138 to 141 °C.
In turn, `Cc1nc(-c2c(F)cccc2Cl)nn1-c1ccc(COc2ncc(C(F)(F)F)cc2Cl)cc1` yielded a melting point of 96 to 97 °C.
In the case of `CCOc1cncc(N2CCN3CCCC3C2)n1` (stereo unspecified) it was 101 to 102 °C; in that of `CCCc1c(OCc2ccccc2C(=O)O)ccc(C(C)=O)c1O`, 214 to 216 °C.
`O=[N+]([O-])CS(=O)(=O)c1ccc(F)cc1F` had a melting point of 74 to 75 °C.
In the case of `Cc1cc(F)cc2c1CC/C2=C\C(=O)O` it was 243 to 246 °C.
The result for `CNC(=O)NC1CCC(OC)c2sccc21` (stereo unspecified) reads 152 to 159 °C; that for `COCCCc1cc(N(C)Cc2ccc(-c3ccc(C(F)(F)F)cc3)nc2)ccc1OCC(=O)O`, 72 to 76 °C.
`CC(C)NCCC(C(N)=O)c1ccccc1-c1ccccc1` (stereo unspecified) came in with a melting point of 92 to 95 °C.
In the case of `O=C1COc2cccc3nc4c(c(c23)N1Cc1ccccc1)CCCC4`, the melting point lay in the range of 166 to 168 °C.
`Cc1ccc(-n2nc(-c3ccc(O)cc3)c3cccnc32)cc1` registered a melting point of 201 to 203 °C.
In the case of `CN(C)CCC1(CO)c2ccccc2N(C)c2ccccc21` it was 150 °C; in that of `NC(=O)C(CCCCCOc1cccc([N+](=O)[O-])c1C=O)C1NCCc2ccccc21` (stereo unspecified), 99 to 100 °C.
The result for `Cc1ccc(/C=C(/C(=O)OC(C)(C)C)C(=O)c2ccccc2O)cc1` reads 86 to 89 °C; that for `CCCc1nc(SCCCCC(=O)O)c(C(=O)O)n1Cc1cc2c(cc1Cl)OCO2`, 156 °C; that for `COc1cc(-c2ccccc2F)c(Cl)cc1C(=O)N1Cc2ccc(C(=O)O)n2Cc2ccccc21`, 192 to 194 °C.
The result for `COc1ccc(C(=O)/C=C/c2ccc3c(c2)OCO3)c(OC)c1` reads 137 °C.
Turning to `O=[N+]([O-])C=C1CN=C(c2ccccc2)c2cc(Cl)ccc2N1`, the melting point was in the range of 184 to 186 °C.
The result for `COC(C(=O)O)c1nn(-c2ccc(Cl)cc2)c2c1CCCC2` (stereo unspecified) reads 185 to 186 °C.
`Nc1ccccc1Nc1ccc(Nc2nccs2)cc1` displayed a melting point of 184 to 186 °C.
In turn, `Cc1cccc(N2CCN(c3ccc(Br)nn3)CC2)c1` showed a melting point of 146 °C.
Regarding `COc1ccc2cc(-c3nc(-c4ccccc4)no3)c(=O)oc2c1`, the melting point turned out to be 215 °C.
For `CC(c1cc(F)cc(F)c1)n1ncc(-c2ccc(S(N)(=O)=O)cc2)c(-c2ccc(F)cc2)c1=O` (stereo unspecified), the melting point was in the range of 139 to 141 °C.
Take `COc1cc2c(cc1Nc1ncc(Cl)c(N[C@@H]3[C@H](C(N)=O)[C@H]4C=C[C@@H]3C4)n1)CCOC(=O)N2C`: the melting point fell in the range of 168 to 170 °C.
Molecule `CCOC(=O)Cc1c2cc(F)ccc2n2c(-c3ccc(S(C)=O)cc3)nccc12` (stereo unspecified) yielded a melting point of 133 to 135 °C.
Consider `CCOC(=O)c1cn(CC(F)(F)F)c2c(C)cc(F)cc2c1=O`, for which the melting point was in the range of 154 to 158 °C.
Molecule `Cc1cnc2c(c1)CCCC2Cl` (stereo unspecified) yielded a melting point of 177 °C.
In the case of `CS(=O)(=O)NCc1cccc(-c2csc(N=C(N)N)n2)n1` it was 196 °C; in that of `CCOC(=O)Cn1nnc(-c2cccc(OCc3ccc4ccccc4n3)c2)n1`, 111 to 113 °C; in that of `O=c1[nH]c(NCCCN(Cc2ccccc2)c2ccccn2)ncc1Cc1ccc(Cl)cc1`, 80 to 86 °C.
Molecule `COc1ccc(CNc2cc(Cl)ncc2C(=O)NCc2ncccn2)cc1Cl` had a melting point of 134 to 136 °C.
`N=C(Nc1ccc(C(F)(F)F)cc1)Nc1ncccc1OCc1ccccc1` registered a melting point of 154 to 155 °C.
The result for `Cc1nnc2n1-c1ccc(Cl)cc1C(N1CCCC1)=NC2` reads 222 to 225 °C; that for `CC(C)(C)NC(=O)c1nc(Cl)c(Cl)[nH]1`, 218 °C; that for `O=C(NC(C(=O)OCc1ccccc1)C(=O)C1CC1)c1ccc(F)cc1` (stereo unspecified), 94.5 to 96 °C.
The result for `O=C(O)CCSC(c1ccccc1CCCCCCCCc1ccccc1)C(O)C(=O)O` (stereo unspecified) reads 91 to 92 °C; that for `CCOCc1nc2c(NC(=O)c3ccccc3)nc3ccccc3c2n1CC(C)(C)NS(C)(=O)=O`, 80 to 83 °C; that for `CCOCCn1c(N2CCCN(CCC3(c4ccccc4)CCN(C(=O)c4cc(NC(C)=O)ccc4OC)C3)CC2)nc2ccccc21` (stereo unspecified), 145 to 150 °C.
The result for `O=C(Nc1c(C(O)(C(F)(F)F)C(F)(F)F)ccc2ccccc12)c1ccno1` reads 162 to 164 °C.
`O=C(NCCO)c1ccnc(-c2cccc3cc(Cc4cc(F)cc(Cl)c4)sc23)c1` displayed a melting point of 172 to 173 °C.
In the case of `CC(C)(C)C(F)(F)c1ccc(C[C@@H](NC(=O)c2cccc3c(Cl)cccc23)[C@@H](O)c2cccc(Cl)c2)cc1` (racemic) it was 99 to 101 °C; in that of `C=CC(=O)OCCN(CCOC(=O)C=C)c1ccc(N=Nc2snc(C)c2C#N)c(NC(=O)C(C)C)c1`, 92 to 94 °C.
The result for `CCC(C)(Cc1c[nH]c2ccccc12)[N+](=O)[O-]` (stereo unspecified) reads 79.5 to 80 °C.
`COc1ccc(C(=O)C2(O)CCCCC2C(=O)NCC(C)C)cc1` (stereo unspecified) returned a melting point of 143 to 147 °C.
The molecule `C=CCOC(=O)C1=C(C)NC(C)=C(C(=O)OC)C1c1ccccc1F` (stereo unspecified) returned a melting point of 130 °C.
In the case of `CC#CC(=O)Nc1ccc2ncnc(Nc3cccc(N(C)C)c3)c2c1` it was 252 to 254 °C; in that of `O=[N+]([O-])c1cc2nc(O)c(O)nc2c2nsnc12`, greater than 300 °C.
Take `CS(=O)c1nnc2c(=O)c3ccccc3ccn12` (stereo unspecified): the melting point lay in the range of 208 to 211 °C.
The molecule `CCCCCCC1([N+](=O)[O-])C=CC(C(=O)O)=CC1` (stereo unspecified) yielded a melting point of 106 to 108 °C.
The result for `CCCc1nnc(N2N=C(c3ccc([N+](=O)[O-])c(C)c3)c3cc4c(cc3C[C@H]2C)OCO4)s1` reads 143 to 145 °C.
The result for `CC(C)c1ccc(C(=O)C2=C(O)C(=O)N(c3ncc(Sc4ccc([N+](=O)[O-])cc4)s3)C2c2ccc(OC(F)(F)F)cc2)cc1` (stereo unspecified) reads 238 °C; that for `Cc1cc2nc3ccccc3sc-2c(Cl)c1=O`, 206 °C.
For the molecule `CCCCCCCCCCCCCC(=O)c1cc(O)c(C)c(C)c1O`, the melting point is 100 °C.
In the case of `COc1ccc(-c2ccc(C(=O)Nc3ccc4cc(CN5CCCCCC5)cnc4c3C)cc2F)cc1` it was 160 to 161 °C.
In the case of `CCOC(=O)c1cnc2cc([N+](=O)[O-])ccc2n1`, the melting point lay within 221 to 223 °C.
In the case of `CNC(=O)c1cccc(F)c1Nc1nc(Nc2ccc3c(c2)NC(=O)C(N2CCOCC2)CC3)ncc1Cl` (stereo unspecified) it was 270 to 271 °C.
In the case of `COc1ccc(CNc2cc(N3CCCC3CO)ccc2C(=O)NCc2ncccn2)cc1Cl` (stereo unspecified) it was 102 to 107 °C.
The result for `CCCCC1Cc2c(n(-c3ccc(F)cc3)c3ncccc3c2=O)O1` (stereo unspecified) reads 243 to 245 °C.
`OCn1nnc2ccccc21` had a melting point of 148 °C.
